According to patent US9233961B2, “Compounds and compositions for the treatment of parasitic diseases” (Novartis AG, priority 2013, dated 2016):

Experiments:
[1] = tested on: L. donovani HU3 strain in mouse peritoneal macrophages; test: Assay for proliferation of Leishmania parasites in mouse peritoneal macrophages; assay type: cell-based, Leishmania donovani; settings: Leishmania donovani, Peritoneal macrophage, read-out: L. donavani Macrophage EC50
Method in brief: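 BALB/c peritoneal macrophages infected 24 h with L. donovani HU3 amastigotes taken from spleens of mice infected 9–11 weeks, then treated with compound for 5 days at 37° C, 5% CO2. Parasite nuclei counted by SYBR Green imaging after fixation; EC50 from percentage inhibition.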

[2] = tested on: Trypanosoma brucei Lister 427 strain bloodstream form; test: Assay for proliferation of kinetoplastid parasite Trypanosoma brucei; assay type: cell-based; settings: Lister 427 bloodstream form, 48 hours, read-out: T. brucei EC50
Excerpt: Assay for Proliferation of Kinetoplastid Parasite Trypanosoma brucei.
The proliferation is quantified by the addition of Cell Titer Glo (Promega®) a luminescent cell viability assay that measures the number of viable cells in culture based on the quantification of cellular ATP amount, which is an indicator of metabolically active cells.
The following assay illustrates the invention without in any way limiting the scope of the invention. This parasite proliferation assay measures the increase in parasite growth using an assay that measures ATP activity, Cell Titer Glo®.
Trypanosoma brucei Lister 427 strain is grown in HMI-9 Trypanosome media for T. brucei bloodstream form. 30 μl of HMI-9 media is dispensed into 384 well assay plates. 200 nl of compounds of the invention (in DMSO), including anti-trypanosome controls (Pentamidine and suramin), are then transferred into the assay plates, as well as DMSO alone to serve as a negative control for inhibition. Then 25 μl of a suspension of T. brucei culture in HMI-9 media is dispensed into the assay plates. The final concentration of parasites in culture corresponds to 1.7% of 0.5 uM ATP activity with Cell Titer Glo® in HMI-9 media. The plates are placed in a 37° C. incubator for 48 hours in an atmospheric environment containing 5% CO2. 40 μl of Cell Titer Glo® is dispensed into the plates. The plates are then read for luminescence. The percentage inhibition of 50%, EC50, is calculated for each compound.

[3] = tested on: Leishmania donovani axenic amastigote parasites; test: Leishmania donovani axenic amastigote proliferation assay; assay type: cell-based; settings: axenic amastigotes in vitro, read-out: L. donovani amastigotes EC50
Method in brief: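 L. donovani axenic amastigotes (9600/well) in RPMI 1640 with 20% heat-inactivated FBS, folic acid, adenosine, glucose and 25 mM MES, pH 5.5, were incubated with compounds for 2 days at 37 °C, 5% CO2. Viability read by CellTiter-Glo luminescence; EC50 calculated.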

Compound | EC50 [1] [µM] | EC50 [2] [µM] | EC50 [3] [µM]
Cc1cnc2nc(-c3cc(NC(=O)C4Cc5ccccc5O4)ccc3Cl)[nH]c2c1 (stereo not drawn) [Compound 123] | > 50 | 4.1 | 20.3
Cc1cnc2nc(-c3cc(NC(=O)C4(C)CN(C(=O)OC(C)(C)C)C4)ccc3Cl)[nH]c2c1 [Compound 133] | > 50 | > 25 | > 25
Cc1cnc2nc(-c3cc(NC(=O)c4oc(C)nc4C)ccc3Cl)[nH]c2c1 [Compound 139] | 25.8 | 0.33 | 1.06
Cc1cnc2nc(-c3cc(NC(=O)c4cccc(S(C)(=O)=O)c4)ccc3Cl)[nH]c2c1 [Compound 140] | > 50 | 6.8 | > 25
Cc1cnc2nc(-c3cc(NC(=O)C(c4ccc(Cl)cc4)C(C)C)ccc3Cl)[nH]c2c1 (stereo not drawn) [Compound 141] | 9.7 | 6.2 | 13.9
Cc1cnc2nc(-c3cc(NC(=O)Cc4ccc(F)c(F)c4)ccc3Cl)[nH]c2c1 [Compound 142] | 20.7 | > 14 | > 25
Cc1cnc2nc(-c3cc(NC(=O)CCO)ccc3Cl)[nH]c2c1 [Compound 143] | > 50 | > 14.4 | > 25
Cc1cnc2nc(-c3cc(NC(=O)Cc4ccc(Cl)cc4)ccc3Cl)[nH]c2c1 [Compound 144] | 26 | > 11.3 | > 25
Cc1cnc2nc(-c3cc(NC(=O)Cc4ncccn4)ccc3Cl)[nH]c2c1 [Compound 145] | > 50 | 16.1 | > 25
Cc1cnc2nc(-c3cc(NC(=O)Cc4onc5ccccc45)ccc3Cl)[nH]c2c1 [Compound 146] | 21.7 | > 14.2 | > 25
Cc1cnc2nc(-c3cc(NC(=O)c4ccno4)ccc3Cl)[nH]c2c1 [Compound 155] | > 39.7 | 4.3 | 7.2
COc1ccc(CC(=O)Nc2ccc(Cl)c(-c3nc4ncc(C)cc4[nH]3)c2)cc1 [Compound 156] | 27.2 | > 14.2 | > 25
Cc1cnc2nc(-c3cc(NC(=O)c4cc[nH]n4)ccc3Cl)[nH]c2c1 [Compound 157] | > 34.6 | 12.8 | > 25
Cc1cnc2nc(-c3cc(NC(=O)c4cc(C5CC5)n[nH]4)ccc3Cl)[nH]c2c1 [Compound 158] | > 50 | 13 | > 25
Cc1cnc2nc(-c3cc(NC(=O)CCCN(C)C)ccc3Cl)[nH]c2c1 [Compound 159] | > 50 | > 12.2 | > 25
Cc1cnc2nc(-c3cc(NC(=O)C(c4ccccc4)C(C)C)ccc3Cl)[nH]c2c1 (stereo not drawn) [Compound 160] | 20.3 | 12.4 | > 24.6
Cc1cnc2nc(-c3cc(NC(=O)c4noc(C)n4)ccc3Cl)[nH]c2c1 [Compound 161] | > 50 | 9.6 | > 25
Cc1cnc2nc(-c3cc(NC(=O)c4ccc(C(F)(F)F)nc4C)ccc3Cl)[nH]c2c1 [Compound 162] | > 50 | 1.23 | > 25
Cc1cnc2nc(-c3cc(NC(=O)C4(C)COC4)ccc3Cl)[nH]c2c1 [Compound 163] | > 50 | > 25 | > 25
Cc1cnc2nc(-c3cc(NC(=O)C(F)(F)c4ccccc4)ccc3Cl)[nH]c2c1 [Compound 164] | 23.4 | 12.6 | > 25
COc1ccc(C(C)C(=O)Nc2ccc(Cl)c(-c3nc4ncc(C)cc4[nH]3)c2)cc1 (stereo not drawn) [Compound 165] | 23.1 | > 11.7 | > 24.5
Cc1cnc2nc(-c3cc(NC(=O)c4ccc(-c5cnccn5)cn4)ccc3Cl)[nH]c2c1 [Compound 166] | > 27.8 | > 25 | > 25
Cc1ccc(CC(=O)Nc2ccc(Cl)c(-c3nc4ncc(C)cc4[nH]3)c2)cc1 [Compound 167] | 16.1 | > 11.5 | > 25
